According to patent US20240150389A1, “MODIFIED GUANINES” (NUCLERA NUCLEICS LTD, priority 2021, published 2024):

Assays:
TdT = experiment: Enzymatic DNA synthesis reactions (N+20 nucleotide additions with TdT, analysed by next-generation sequencing); type: biochemical
Experimental: Enzymatic N+20 nucleotide addition reactions were conducted on polymer-coated silica paramagnetic particles. Enzymatic DNA synthesis was performed on a ThermoFisher KingFisher sample purification system. Enzymatic DNA synthesis consists of cycles of addition solution (containing TdT, reversibly terminated nucleotide and a near-neutral extension solution comprising one or more buffers (e.g., Tris or cacodylate), one or more salts (e.g., Na^+, K^+, Mg^2+, Mn^2+, Cu^2+, Zn^2+, Co^2+, etc. all with appropriate counterions, such as Cl^−) and inorganic pyrophosphatase (e.g., the Saccharomyces cerevisiae homolog)), wash 1 solution (HEPES+5 mM EDTA at pH 8.00), deblock solution (sodium nitrite at pH 5.5), and wash 2 solution (HEPES at pH 7.20). The following sequences […] (Oligo A) and […] (Oligo B) were synthesized in triplicate. DNA products were analysed by next-generation sequencing on an Illumina MiniSeq. Data showing the percent perfect sequences are shown in the following plots for synthesis of these sequences with reversibly terminated dG and reversibly terminated 8-aza-dG; other nucleotides are reversibly terminated dA, dC or dT.

[1] = Stability tests of modified 2′-deoxyguanosines in NDS buffer vs. 2′-deoxyguanosine (nitrite-mediated deamination); type: physicochemical; conditions: for stability in NDS compared with 2′-deoxyguanosine: nitrite deprotection solution (sodium nitrite in 1M sodium acetate, pH 5.5), room temperature, over 4 days, HPLC or LC/MS
Experimental: Stability Tests of Modified 2′-Deoxyguanosines in NDS Buffer vs. 2′-Deoxyguanosine
Nitrite deprotection solution (NDS) was prepared from sodium nitrite (380 mg, 5.5 mmol) and 1M pH 5.5 sodium acetate (7.868 mL) and adjusted to pH 5.5 with 10M sodium hydroxide. Samples of nucleoside (˜0.5 mg) were dissolved in 1 mL aliquots of this buffer. The samples were analysed by HPLC or LC/MS using Method 1 or Method 2 immediately after making up the samples and at intervals over 4 days while stored at room temperature alongside reference samples of 2′-deoxyguanosine. 2′-Deoxyguanosine gave an approximately 8:1 mixture of 2′-deoxyxanthosine and Peak (3) with the same mass as 2′-deoxyxanthosine. 7-Deaza-2′-deoxyguanosine gave 7-deaza-2′-deoxyxanthosine as one component of a complex mixture of products. Other nucleosides gave products with masses corresponding to the products of substitution of NH2 with OH (increase of 1 Da) assigned to the 2′-deoxyxanthosine analogues. Data for 7-deaza-2′-deoxyguanosine (X=CH, Y=CH), 7-deaza-7-trifluoromethyl-2′-deoxyguanosine (X=CCF3, Y=CH), 7-deaza-7-cyano-2′-deoxyguanosine, 7-deaza-7-methanesulfonyl-2′-deoxyguanosine (X=CSO2Me, Y=CH) and 8-aza-2′-deoxyguanosine (X=N, Y=N) for experiments run in parallel with 2′-deoxyguanosine (X=CH, Y=N) are shown in the plots below.

Row | stability in NDS compared with 2′-deoxyguanosine [1] | Compound | also measured
1 | – | 3′-(O)-Acetoxime-8-Aza-2′-Deoxyguanosine 5′-Triphosphate [reversibly terminated 8-aza-dG] | efficiency of additions of any nucleotide to 8-aza-dG terminated sequences compared with dG terminated sequences (TdT; TdT addition, Oligo A and Oligo B): less efficient; percent perfect sequences compared with products made with dG (TdT; synthesis of Oligo A and Oligo B in triplicate, Illumina MiniSeq): lower level of percent perfect sequences
2 | slightly more stable | CS(=O)(=O)c1cn(C2CC(O)C(CO)O2)c2nc(N)[nH]c(=O)c12 (stereo not shown) [7-(MethanesulfonyI)-7-Deaza-2′-Deoxyguanosine] | –
3 | much less stable | Nc1nc2c(ccn2[C@H]2C[C@H](O)[C@@H](CO)O2)c(=O)[nH]1 [7-Deaza-2′-deoxyguanosine, reference compound] | –
4 | slightly more stable | Nc1nc2c(c(C(F)(F)F)cn2[C@H]2C[C@H](O)[C@@H](CO)O2)c(=O)[nH]1 [7-Deaza-7-Trifluoromethyl-2′-Deoxyguanosine] | –
5 | slightly more stable | N#Cc1cn([C@H]2C[C@H](O)[C@@H](CO)O2)c2nc(N)[nH]c(=O)c12 [7-deaza-7-cyano-2′-deoxyguanosine, 7-Deaza-7-Cyano-2′-Deoxyguanosine] | –
6 | – | Nc1nc2c(nnn2[C@H]2C[C@H](O)[C@@H](CO)O2)c(=O)[nH]1 [8-Aza-2′-deoxyguanosine] | factor by which more stable in NDS than 2′-deoxyguanosine ([1]; nitrite deprotection solution pH 5.5, room temperature, run in parallel with 2′-deoxyguanosine): 4.2
